Measurements published in publication PMC10058761, “Heart-Type Fatty Acid Binding Protein Binds Long-Chain Acylcarnitines and Protects against Lipotoxicity” (International Journal of Molecular Sciences, 2023).
Where “and” joins values, the source holds several entries; their conditions need not be identical. Equal entries are not always repeated.

How the values were obtained:
human FABP3 [1] = target: T1, human FABP3 (Homo sapiens, UniProt P05413); test: ITC assay of ligand binding to apo-FABP3; conditions: for Kd / ΔG / ΔH / −TΔS / N (stoichiometry) / binding to FABP3 (binding heat effects) by ITC: KPi pH 7.6, 25 °C; for N (stoichiometry): protein assumed 100% active and delipidated
T1 construct: His-tag (N); TEV cleavage site (N); made in house; host or cells: E. coli BL21(DE3)
T1 sequence (P05413 whole entry): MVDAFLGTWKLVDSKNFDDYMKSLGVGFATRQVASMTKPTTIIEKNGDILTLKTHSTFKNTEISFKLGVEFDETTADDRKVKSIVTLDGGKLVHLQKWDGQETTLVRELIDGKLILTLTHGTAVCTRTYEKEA
Protocol: ITC experiments were carried out on the MicroCal™ iTC200 instrument (Malvern Instruments Ltd., Malvern, UK). Experiments were performed in KPi buffer without and with 0.1% (v/v) TX supplement. […] Experiments for the determination of the ΔCp were performed at three different temperatures: 16, 25, and 37 °C. […] Every titration started with a small 0.3 μL injection introduced to compensate for the diffusion effects. One of the following injection profiles was chosen based on the activity of the ligand and binding heat released: 1.2 μL × 32 or 1.5 μL × 26—all with 120 s time spacing between every injection and 600 rpm. Each ligand was titrated at least two times. The reference baseline consisting of small peaks of identical size (titration of the corresponding ligand into the buffer) was subtracted from the data before fitting to correct for the heat of the ligand dilution. The first injection was excluded from each dataset. The final data were fitted to a theoretical titration curve (one set of sites fitting model) using MicroCal Origin 7 SR4 software (OriginLab, Northampton, MA, USA).

human FABP3 [2] = target: T1, human FABP3; test: Ligand binding by NMR (2D 1H-15N HSQC chemical shift perturbations); conditions: KPi buffer pH 7.6
Protocol: NMR spectra were acquired on the 600 MHz Bruker Avance Neo spectrometer (Bruker Biospin GmbH, Rheinstetten, Germany) equipped with a 5-mm quadruple-resonance CryoProbe (QCI) with z-gradients. […] All experiments were performed in KPi buffer without or with TX and with the addition of 7% (v/v) D2O, 0.03% (v/v) NaN3, and 0.01% (v/v) SigmaFAST EDTA-free protease inhibitor cocktail to prevent protein degradation. The amount of organic solvent (ethanol or DMSO-d6) was below 2% (v/v) in each experiment.
3D HNCA, 3D HNCO, 3D HN(CA)CO, and 3D CBCA(CO)NH spectra were acquired for the backbone assignment. 3D [^1H,^1H]-nuclear Overhauser spectroscopy (NOESY)-^15N-heteronuclear single-quantum correlation (HSQC) spectrum was acquired using a mixing time of 100 ms and also used in the backbone assignment. 2D ^1H-^15N HSQC spectra were acquired for evaluation of the CSPs caused by the lipid binding. Chemical shifts were referenced internally to the residual water signal at 4.70 ppm relative to the 4,4-dimethyl-4-silapentane-1-sulfonic acid (DSS). […] Other complexes were analyzed by analogy and with the help of 3D [^1H-^1H]-NOESY-^15N-HSQC. All spectra were processed in TopSpin v. 4.1.1. (Bruker, Billerica, MA, USA) and analyzed in CARA 1.9.1. software. Residue-specific protein backbone amide assignment was performed based on the published chemical shifts. CSPs, Δδ, were calculated using Equation (1) with the scaling factor, α, which was set to 0.1 [67, 68]. (1) Δδ=1/2[δH2+α·δN^2],

human FABP3 [3] = target: T1, human FABP3; test: ITC competitive binding experiments (FABP3 pre-saturated with a competing ligand); conditions: FABP3 saturated with C18:1(n-9)t-carnitine, titrated with the FA, 25 °C
Protocol: ITC experiments were carried out on the MicroCal™ iTC200 instrument (Malvern Instruments Ltd., Malvern, UK). Experiments were performed in KPi buffer without and with 0.1% (v/v) TX supplement. All titrations except for the determination of the heat capacity, ΔCp, were performed at 25 °C using 20–120 μM protein. Experiments for the determination of the ΔCp were performed at three different temperatures: 16, 25, and 37 °C. 280 μL of the protein solution in the sample cell were titrated with the ligand solution diluted to 200–1200 μM depending on the enzyme concentration (to achieve a 1:10 or 1:5 ratio). Every titration started with a small 0.3 μL injection introduced to compensate for the diffusion effects. One of the following injection profiles was chosen based on the activity of the ligand and binding heat released: 1.2 μL × 32 or 1.5 μL × 26—all with 120 s time spacing between every injection and 600 rpm. Each ligand was titrated at least two times. The reference baseline consisting of small peaks of identical size (titration of the corresponding ligand into the buffer) was subtracted from the data before fitting to correct for the heat of the ligand dilution. The first injection was excluded from each dataset. […]

human FABP3 [4] = target: T1, human FABP3; test: ITC determination of heat capacity change at 16, 25 and 37 °C; format: binding; conditions: ΔH at 16, 25, 37 °C, linear regression
Description: Heat capacity changes, ΔCp, are important indicators of the structural changes during ligand-to-protein binding in various environmental conditions and may reflect changes in the static and dynamic properties of the protein [33, 34]. Moreover, it may represent interactions with extra supplements, such as salts and detergents, and larger processes, such as changes in protein folding, solvent-accessible surface area (SASA), or protonation states within the active site. […] Thermodynamic parameters for the remaining LCFAs were determined in the KPi + TX buffer, while LCACs were tested in the KPi buffer without any additive. Figure 7 represents an example of the overlays of the ITC experiments for C18:1(n-9)c and the corresponding LCAC performed at the following temperatures: 16, 25, and 37 °C.
ITC experiments were carried out on the MicroCal™ iTC200 instrument (Malvern Instruments Ltd., Malvern, UK). Experiments were performed in KPi buffer without and with 0.1% (v/v) TX supplement. All titrations except for the determination of the heat capacity, ΔCp, were performed at 25 °C using 20–120 μM protein. Experiments for the determination of the ΔCp were performed at three different temperatures: 16, 25, and 37 °C. 280 μL of the protein solution in the sample cell were titrated with the ligand solution diluted to 200–1200 μM depending on the enzyme concentration (to achieve a 1:10 or 1:5 ratio). Every titration started with a small 0.3 μL injection introduced to compensate for the diffusion effects. One of the following injection profiles was chosen based on the activity of the ligand and binding heat released: 1.2 μL × 32 or 1.5 μL × 26—all with 120 s time spacing between every injection and 600 rpm. Each ligand was titrated at least two times. The reference baseline consisting of small peaks of identical size (titration of the corresponding ligand into the buffer) was subtracted from the data before fitting to correct for the heat of the ligand dilution. The first injection was excluded from each dataset. The final data were fitted to a theoretical titration curve (one set of sites fitting model) using MicroCal Origin 7 SR4 software (OriginLab, Northampton, MA, USA).

[5] = KPi without TX, Competitive Binding model
[6] = KPi without TX, One Set of Sites model
[7] = KPi + 0.10% TX, Competitive Binding model
[8] = KPi + 0.10% TX, One Set of Sites model

Compound | Kd (human FABP3 [1]; with 0.1% TX) [µM] | ΔG (human FABP3 [1]; with 0.1% TX) [kcal/mol] | ΔH (human FABP3 [1]; with 0.1% TX) [kcal/mol] | −TΔS (human FABP3 [1]; with 0.1% TX) [kcal/mol] | N (stoichiometry) (human FABP3 [1]; with 0.1% TX) | Kd (human FABP3 [1]; without TX) [µM] | ΔG (human FABP3 [1]; without TX) [kcal/mol] | ΔH (human FABP3 [1]; without TX) | −TΔS (human FABP3 [1]; without TX) [kcal/mol] | N (stoichiometry) (human FABP3 [1]; without TX) | binding to FABP3 by NMR (CSPs in 2D 1H-15N HSQC) (human FABP3 [2]) | other results
CCCCCCCC(=O)O [C8:0, caprylate] | 1.109 ± 0.001 | -8.13 ± 0.01 | -12.6 ± 0.3 | 4.5 ± 0.3 | 1.0 | 1.86 ± 0.05 | -7.82 ± 0.02 | -8.01 ± 0.09 kcal/mol | 0.19 ± 0.07 | 1.0 | – | –
CCCCCCCC(=O)O[C@H](CC(=O)O)C[N+](C)(C)C.[Cl-] [C8:0-carnitine] | – | – | – | – | – | – | – | – | – | – | did not bind | binding to FABP3 (binding heat effects) by ITC (human FABP3 [1]; without TX): no binding
CCCCCCCCCC(=O)O [C10:0, caprate] | 0.56 ± 0.02 | -8.535 ± 0.007 | – | 4.7 ± 0.3 | 1.0 | 0.252 ± 0.004 | -9.01 ± 0.01 | -11.09 kcal/mol and -11.09 ± 0.08 kcal/mol | 2.08 ± 0.08 | 1.0 | – | ΔG (human FABP3 [3]; [5]): -11.8 ± 0.1 kcal/mol; ΔH (human FABP3 [3]; [5]): -14.1 ± 0.2 kcal/mol; -TΔS (human FABP3 [3]; [6]): 1.0 ± 0.1 kcal/mol; Kd (human FABP3 [3]; [6]): 0.36 ± 0.07 µM; ΔG (human FABP3 [3]; [6]): -8.8 ± 0.1 kcal/mol; ΔH (human FABP3 [3]; [6]): -9.8 ± 0.2 kcal/mol
CCCCCCCCCCCC(=O)O [C12:0, laurate] | 0.57 ± 0.06 | -8.54 ± 0.06 | -14.5 ± 0.4 | 6.0 ± 0.3 | 1.0 | 0.2 ± 0.02 | -9.12 ± 0.06 | -8.60 ± 0.08 kcal/mol | -0.53 ± 0.02 | 1.0 | – | ΔCp (human FABP3 [4]; KPi without TX): −0.33 kcal∙mol^−1∙K^−1 and −0.33 ± 0.01 kcal∙mol^−1∙K^−1; -TΔS (human FABP3 [3]; [5]): -0.4 ± 1.1 kcal/mol; ΔG (human FABP3 [3]; [5]): -12.5 ± 0.9 kcal/mol; ΔH (human FABP3 [3]; [5]): -12.1 ± 0.2 kcal/mol; -TΔS (human FABP3 [3]; [6]): -1.0 ± 0.1 kcal/mol; Kd (human FABP3 [3]; [6]): 0.36 ± 0.03 µM; ΔG (human FABP3 [3]; [6]): -8.80 ± 0.04 kcal/mol; ΔH (human FABP3 [3]; [6]): -7.8 ± 0.2 kcal/mol
CCCCCCCCCCCCCC(=O)O [C14:0, myristate] | 0.3 ± 0.1 | -8.9 ± 0.2 | -10.9 ± 0.4 | 1.9 ± 0.2 | 1.0 | – | – | – | – | – | – | –
CCCCCCCC/C=C\CCCCCCCC(=O)O [C18:1(n-9)c, oleate] | 0.29 ± 0.03 | -8.93 ± 0.06 | -10.0 ± 0.4 | 1.1 ± 0.5 | 1.0 | – | – | – | – | – | – | ΔCp (human FABP3 [4]; KPi with 0.1% TX): −0.29 ± 0.06 kcal∙mol^−1∙K^−1
CCCCCCCC/C=C/CCCCCCCC(=O)O [C18:1(n-9)t, elaidate] | 0.21 ± 0.02 | -9.12 ± 0.06 | -8.0 ± 0.9 | -1.1 ± 0.9 | 1.0 | – | – | – | – | – | – | ΔCp (human FABP3 [4]; KPi with 0.1% TX): −0.15 ± 0.02 kcal∙mol^−1∙K^−1
CC/C=C\C/C=C\C/C=C\C/C=C\C/C=C\CCCC(=O)O [C20:5(n-3)c, EPA] | 1.6 ± 0.2 | -7.90 ± 0.07 | -17.4 ± 0.7 | 9.5 ± 0.8 | 1.0 | – | – | – | – | – | – | ΔCp (human FABP3 [4]; KPi with 0.1% TX): −0.37 ± 0.03 kcal∙mol^−1∙K^−1
C[N+](C)(C)C[C@H](O)CC(=O)[O-] [carnitine, L-carnitine] | – | – | – | – | – | – | – | – | – | – | neither bind nor interact | –
Triton™ X-100 [TX] | – | – | – | – | – | – | – | – | – | – | did not interact with the FABP3 core structure | –

Further lines, with some results ahead:

Kd (human FABP3 [1]; with 0.1% TX) [µM] | ΔG (human FABP3 [1]; with 0.1% TX) [kcal/mol] | ΔH (human FABP3 [1]; with 0.1% TX) [kcal/mol] | −TΔS (human FABP3 [1]; with 0.1% TX) [kcal/mol] | N (stoichiometry) (human FABP3 [1]; with 0.1% TX) | Kd (human FABP3 [1]; without TX) [µM] | ΔG (human FABP3 [1]; without TX) [kcal/mol] | ΔH (human FABP3 [1]; without TX) | −TΔS (human FABP3 [1]; without TX) [kcal/mol] | N (stoichiometry) (human FABP3 [1]; without TX) | binding to FABP3 by NMR (CSPs in 2D 1H-15N HSQC) (human FABP3 [2]) | Compound | other results
– | – | – | – | – | – | – | – | – | – | did not bind | CCCCCCCCCCCC(=O)O[C@H](CC(=O)O)C[N+](C)(C)C [C12:0-carnitine] | binding to FABP3 (binding heat effects) by ITC (human FABP3 [1]; without TX): no binding
– | – | – | – | – | 11.3 | -6.7 | -1.1 kcal/mol | -5.7 | 0.5 | strong CSPs indicative of binding | CCCCCCCCCCCCCC(=O)O[C@H](CC(=O)O)C[N+](C)(C)C.[Cl-] [C14:0-carnitine, miristoylcarnitine] | –
– | -9.34 ± 0.07 | -8.7 ± 0.9 | -0.6 ± 0.8 | 1.0 | – | – | – | – | – | – | CCCCCCCCCCCCCCCC(=O)O [C16:0, palmitate] | -TΔS (human FABP3 [3]; [7]): 0.2 ± 0.1 kcal/mol; ΔG (human FABP3 [3]; [7]): -11.62 kcal/mol; ΔH (human FABP3 [3]; [7]): -11.77 kcal/mol; -TΔS (human FABP3 [3]; [8]): -1.14 ± 0.05 kcal/mol; ΔG (human FABP3 [3]; [8]): -8.63 ± 0.01 kcal/mol; ΔH (human FABP3 [3]; [8]): -7.49 ± 0.05 kcal/mol
– | – | – | – | – | 8.9 ± 1.2 | -6.90 ± 0.08 | -5.04 ± 0.09 kcal/mol | -1.86 ± 0.01 | 1.0 | strong CSPs indicative of binding | CCCCCCCCCCCCCCCC(=O)SCCNC(=O)CCNC(=O)[C@H](O)C(C)(C)COP(=O)(O)OP(=O)(O)OC[C@H]1O[C@@H](n2cnc3c(N)ncnc32)[C@H](O)[C@@H]1OP(=O)(O)O [C16:0-CoA, palmitoyl-CoA] | effect of detergent addition on binding to FABP3 (ITC) (human FABP3 [1]; KPi with TX detergent): completely blocked the binding
0.7 ± 0.1 | -8.34 ± 0.04 | -6.4 ± 0.4 | -2.0 ± 0.4 | 1.0 | – | – | – | – | – | – | CCCCCCCCCCCCCCCCCC(=O)O [C18:0, stearate] | –
